Data taken from ChEMBL document CHEMBL4004852, “Pharmacophore Mapping of Thienopyrimidine-Based Monophosphonate (ThP-MP) Inhibitors of the Human Farnesyl Pyrophosphate Synthase” (J Med Chem, 2017).

Target: T1, Farnesyl pyrophosphate synthase (Homo sapiens, UniProt P14324)
T1 sequence (P14324 whole entry): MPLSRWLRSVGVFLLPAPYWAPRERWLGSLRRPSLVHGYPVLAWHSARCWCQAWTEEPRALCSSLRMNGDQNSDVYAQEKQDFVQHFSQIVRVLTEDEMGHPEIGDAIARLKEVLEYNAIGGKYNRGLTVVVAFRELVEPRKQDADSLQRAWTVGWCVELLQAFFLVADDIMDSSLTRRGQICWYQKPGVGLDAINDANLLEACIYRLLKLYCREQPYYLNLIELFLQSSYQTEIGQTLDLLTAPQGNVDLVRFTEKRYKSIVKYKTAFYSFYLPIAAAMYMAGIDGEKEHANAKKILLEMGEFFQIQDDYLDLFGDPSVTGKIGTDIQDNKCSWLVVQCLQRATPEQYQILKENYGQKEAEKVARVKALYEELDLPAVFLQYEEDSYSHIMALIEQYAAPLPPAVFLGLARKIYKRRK
Assay: Inhibition of N-terminal His-tagged human recombinant FPPS expressed in Escherichia coli BL21 (DE3) using GPP and [3H]-IPP as substrate preincubated for 10 mins before substrate addition measured after 8 mins by liquid scintillation counting

Compared with COc1cc(C)c(F)cc1-c1cc2c(NCP(=O)(O)O)ncnc2s1, COc1cc(C)c(Cl)cc1-c1cc2c(NCP(=O)(O)O)ncnc2s1 is 1.9-fold higher in IC50: 4600 nM for the first, 8800 nM for the second. The first is the more potent here.

First: Cc1ccc(-c2cc3c(NCP(=O)(O)O)ncnc3s2)cc1
Second: Cc1ccc(-c2cc3c(NC(CC4CCC4)P(=O)(O)O)ncnc3s2)cc1 (stereo unspecified)
The IC50 of the first is 1.8-fold higher: 5000 nM for the first, 2800 nM for the second.

First: Cc1ccc(-c2cc3c(N[C@@H](Cc4ccccc4)C(=O)NP(=O)(O)O)ncnc3s2)cc1
Second: Cc1ccc(-c2cc3c(N[C@H](Cc4ccccc4)P(=O)(O)O)ncnc3s2)cc1
The IC50 of the first is 3.7-fold higher: 3700 nM for the first, 1000 nM for the second. The second is the more potent here.

First: Cc1ccc(-c2cc3c(NC(Cc4cccc(F)c4)P(=O)(O)O)ncnc3s2)cc1F (stereo unspecified)
Second: Cc1ccc(-c2cc3c(NC(Cc4cccc(F)c4)P(=O)(O)O)ncnc3s2)cc1Cl (stereo unspecified)
The IC50 of the first is 1.7-fold higher: 1500 nM for the first, 860 nM for the second. The second is the more potent here.

First: COc1cc(C)c(Cl)cc1-c1cc2c(NC(c3ccccc3)P(=O)(O)O)ncnc2s1 (stereo unspecified)
Second: COc1cc(C)c(Cl)cc1-c1cc2c(NC(Cc3ccccc3)P(=O)(O)O)ncnc2s1 (stereo unspecified)
The IC50 of the first is 1.8-fold higher: 8400 nM for the first, 4600 nM for the second. The second is the more potent here.

First: O=P(O)(O)CNc1ncnc2sccc12
Second: Cc1ccc(-c2sc3ncnc(NCP(=O)(O)O)c3c2C)cc1
The IC50 of the first is higher: over 100000 nM for the first, 10000 nM for the second.

Going from Cc1ccc(-c2sc3ncncc3c2CP(=O)(O)O)cc1 to Cc1ccc(-c2sc3ncnc(NC(Cc4ccccc4)P(=O)(O)O)c3c2C)cc1 (stereo unspecified), the IC50 falls from at least 100000 nM to 2600 nM.

Going from Cc1ccc(-c2sc3ncnc4c3c2COP(=O)(O)CCC4)cc1 to Cc1ccc(-c2cc3c(NC(CC4CCCCC4)P(=O)(O)O)ncnc3s2)cc1 (stereo unspecified), the IC50 falls from at least 100000 nM to 1600 nM.

COc1ccc(F)cc1-c1cc2c(NC(Cc3cccc(F)c3)P(=O)(O)O)ncnc2s1 (stereo unspecified) and COc1cc(C)c(F)cc1-c1cc2c(NC(Cc3cccc(F)c3)P(=O)(O)O)ncnc2s1 (stereo unspecified) are within 1.5-fold of each other in IC50: 1000 nM for the first, 870 nM for the second.

COc1cc(C)c(F)cc1-c1cc2c(NC(Cc3ccccc3)P(=O)(O)O)ncnc2s1 (stereo unspecified) and Cc1ccc(-c2cc3c(NC(Cc4ccccc4)P(=O)(O)O)ncnc3s2)cc1Cl (stereo unspecified) are within 1.5-fold of each other in IC50: 1600 nM for the first, 2300 nM for the second.

Cc1ccc(-c2cc3c(NC(Cc4cccc(F)c4)P(=O)(O)O)ncnc3s2)cc1 (stereo unspecified) and Cc1ccc(-c2cc3c(NC(Cc4ccccc4)P(=O)(O)O)ncnc3s2)cc1 (stereo unspecified) are within 1.5-fold of each other in IC50: 1100 nM for the first, 1400 nM for the second.

Cc1ccc(-c2cc3c(N[C@@H](Cc4ccccc4)P(=O)(O)O)ncnc3s2)cc1 and Cc1ccc(-c2cc3c(NC(c4ccccc4)P(=O)(O)O)ncnc3s2)cc1 (stereo unspecified) are within 1.5-fold of each other in IC50: 4000 nM for the first, 4800 nM for the second.

Compared with Cc1ccc(-c2cc3c(NC(c4ccc5c(c4)CCO5)P(=O)(O)O)ncnc3s2)cc1 (stereo unspecified), Cc1ccc(-c2cc3c(NC(c4ccccc4)P(=O)(O)O)ncnc3s2)cc1Cl (stereo unspecified) is 1.9-fold lower in IC50: 3000 nM for the first, 1600 nM for the second. The second is the more potent here.
